Test results published in US20090305225A1, “Inhibition of Creatine Uptake to Promote Weight Loss” (priority 2005, published 2009).

How the values were obtained:
Format in all cases: in vivo, rat
[1] = tested on: hypothalamic creatine and phosphocreatine; assay: Creatine assay (HPLC) of hypothalamic blocks; details: 48 hours after 0.4 um/kg
Description: Hypothalamic blocks were rapidly dissected from animals treated icv with vehicle or CoPP at the indicated doses and snap-frozen in liquid nitrogen. They were stored at -80 degrees C. until they were crushed into a powder under liquid nitrogen and homogenized in 0.5 M PCA. Samples were then centrifuged at 4 degrees C. for 10 minutes at 15,000×g and the resulting supernatant neutralized with 1 M KOH. HPLC analysis was performed essentially as described. Samples were injected onto a Partisil 10 SAX analytical column which was eluted […] starting with Buffer A (0.01M H2PO4) and changing to Buffer B ([…]). The column was run on a Waters HPLC equipped with a Waters 996 Photodiode Array Detector and a Waters 717+ Auto Sampler. Both creatine and phosphocreatine standards were run with each sample set. Results are expressed as nanomoles per mg wet weight.

Fos (c-fos protein) = assay: Fos immunohistochemistry of hypothalamic sections 4 hours after icv injection; details: 4 hours after icv injection, percent of area stained
Description: In experiments involving immunohistochemistry, animals were injected icv with beta-GPA or with vehicle. Four hours after injection, animals were anesthetized with halothane and perfused through the left ventricle of the heart, initially with oxygenated Krebs buffer and then with ˜350 ml of 4% paraformaldehyde in 0.1M NaCl, pH 7.4 phosphate buffered saline (PBS). Brains were extracted from the skull, hypothalamic blocks dissected (by coronal cuts anterior and posterior to hypothalamic landmarks) and post-fixed in 4% paraformaldehyde solution at 4 degrees C. overnight. The following day, the blocks were transferred to 30% sucrose and incubated overnight at 4 degrees C. After freezing in Optimum Cutting Temperature (OCT) compound (Sakura, Japan), blocks were sectioned coronally at 40 um on a cryostat and sections individually floated in multi-well dishes filled with PBS. Sections were treated for 30 minutes with 0.4% Triton detergent in potassium PBS to aid in antibody penetration. Primary antibodies were added, the plates shaken gently for 1 hour at room temperature, then incubated at 4 degrees C. for 72 hours. Sections were then brought to room temperature while shaking and the primary antibody solution was removed by washing 3 times with PBS buffer. After removal of the last wash, the secondary antibody solution was added and the plates incubated for 2 hours at room temperature in the dark. Removal of the second antibody was achieved by washing three times with PBS buffer prior to mounting on subbed slides. They were allowed to dry, rewetted with PBS buffer and cover-slipped with Citifluor (Ted Pella, Reading, Calif.).
Fos studies were performed using indirect fluorescence visualization. The method utilized rabbit c-Fos-AB5 (1:2,000; Oncogene Research Products, Cambridge, Mass.) with goat anti-rabbit Cy3 (1:500; Jackson Immuno Research Laboratories, West Grove, Pa.) as the secondary antibody. […] Staining observed in experimental tissue was compared to that observed from experiment-matched negative controls. […] Immunoreactive Fos (Fos IR) was quantified by capturing images at 10× using MagnaFire 2.0 Software. These images were imported into the Metamorph 6.1 Software package and density of staining measured using Hue Saturation Intensity. Regions outlining nuclei were hand drawn with an electric pen and the total areas and stained areas measured to yield percentages of total areas with specific Fos-IR. The values for left and right dorsomedial nuclei in each rat were averaged, and the averages used to calculate means. In the case of the III ventricle, the entire image was used for quantification prior to calculating the percentage of the area with Fos-IR.

[2] = tested on: creatine transporter (CrT) mRNA; assay: Real-Time PCR of creatine transporter mRNA in hypothalami of CoPP-treated rats; details: hypothalamus, 48 hours after icv, normalized to L32 mRNA, mean ± SEM
Description: RNA was purified with RNAase-free DNase (Promega) at 37 degrees C. for 30 min. The first strand of cDNA was synthesized by adding 1 ug of purified RNA from each sample to 20 ul containing MMLV reverse transcriptase (Invitrogen Life Tech). Creatine transporter (CrT) gene expression was further quantatified by Real-Time PCR using sense primer: 5′[…]′ (SEQ ID NO: 1); antisense primer: 5′[…]-3′ (SEQ ID NO:2) and TaqMan probe: 5′[…]-3′ (SEQ ID NO: 3) (MMG-Biotech). The rat ribosomal protein L32 gene was used as a loading control. Each cDNA sample (1 ul) derived from the 20 ul reverse transcription reaction and 1 ul RNA template was mixed with 24 ul master mixture (Perkin Elmer) in a 96-well TaqMan plate. The PCR was run in an ABI prism 7700 thermocycler (Applied Biosystems) at 50 degrees C. for 2 min and 95 degrees C. for 10 min; this was followed by 95 degrees C. for 15 sec and 60 degrees C. for 1 min for 40 cycles. The data were analyzed using software supplied with the ABI prism 7700.

Compound: C=Cc1c(C)c2cc3[nH]c(cc4nc(cc5nc(cc1[nH]2)C(C)=C5CCC(=O)[O-])C(CCC(=O)[O-])=C4C)c(C)c3C=C.[Co+2] [CoPP, Cobaltic protoporphyrin IX]
- decrease in hypothalamic phosphocreatine concentrations ([1]; failed to meet statistical significance): about 40%
- decrease in hypothalamic creatine concentrations ([1]; versus vehicle-treated or fasted rats, p=0.008): about 20%
- Fos IR in the dorsomedial nucleus (Fos (c-fos protein)): 6.86 ± 5.85%
- Fos IR in the paraventricular nucleus (Fos (c-fos protein)): 4.44 ± 2.22%
- Fos IR in the midsection of the ventral III ventricle (Fos (c-fos protein); p<0.025): 48.3 ± 11.18%
- Real-Time PCR [2]: 0.97 ± 0.050 arbitrary units
